Laboratory results taken from patent publication US12441730B2, “PRMT5 inhibitors” (Merck Sharp & Dohme LLC, priority 2019, dated 2025).
Like-named read-outs stand apart in the source and are kept apart here.

How the values were obtained:
[1] = molecular target: T1, Full-length (FL)-PRMT5-MEP50 enzyme complex (Homo sapiens, UniProt O14744); test: PRMT5-MEP50 Enzyme Methylation Assay (Version A); type: biochemical
T1 construct: Full-length (FL)-PRMT5-MEP50 enzyme complex (recombinant proteins from baculovirus-transfected Sf21 cells: FL-PRMT5; MW=73837 kDa and FL-MEP50; MW=38614); made in house; host or cells: baculovirus-transfected Sf21 cells
T1 sequence (O14744 whole entry): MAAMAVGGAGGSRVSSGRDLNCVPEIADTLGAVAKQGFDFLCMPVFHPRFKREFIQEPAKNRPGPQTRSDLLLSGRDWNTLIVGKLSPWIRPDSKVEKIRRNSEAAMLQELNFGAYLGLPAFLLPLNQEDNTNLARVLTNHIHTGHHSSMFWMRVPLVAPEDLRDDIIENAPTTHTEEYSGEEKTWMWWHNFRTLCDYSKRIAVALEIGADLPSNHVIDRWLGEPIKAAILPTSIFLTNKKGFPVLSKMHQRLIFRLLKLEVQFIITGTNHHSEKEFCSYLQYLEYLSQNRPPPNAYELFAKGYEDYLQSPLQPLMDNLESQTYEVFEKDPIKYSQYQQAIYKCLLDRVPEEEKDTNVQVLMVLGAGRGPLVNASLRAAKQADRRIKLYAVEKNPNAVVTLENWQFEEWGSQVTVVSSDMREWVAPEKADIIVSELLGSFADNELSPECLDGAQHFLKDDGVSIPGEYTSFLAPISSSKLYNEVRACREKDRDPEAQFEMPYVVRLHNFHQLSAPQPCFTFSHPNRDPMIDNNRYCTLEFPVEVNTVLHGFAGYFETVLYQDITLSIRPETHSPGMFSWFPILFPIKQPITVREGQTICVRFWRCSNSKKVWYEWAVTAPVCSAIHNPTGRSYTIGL
T1 sequence (Q9BQA1 whole entry partner): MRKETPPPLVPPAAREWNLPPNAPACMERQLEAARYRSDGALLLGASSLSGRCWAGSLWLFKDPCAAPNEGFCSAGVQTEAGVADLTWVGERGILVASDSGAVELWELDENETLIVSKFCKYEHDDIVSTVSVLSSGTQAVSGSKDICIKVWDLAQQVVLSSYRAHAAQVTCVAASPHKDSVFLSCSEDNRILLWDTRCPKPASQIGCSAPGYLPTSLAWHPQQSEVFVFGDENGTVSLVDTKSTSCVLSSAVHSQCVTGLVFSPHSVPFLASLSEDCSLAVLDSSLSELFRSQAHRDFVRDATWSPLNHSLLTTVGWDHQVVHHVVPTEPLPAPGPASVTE
Description: PRMT5-MEP50 Enzyme Methylation Assay (Version A)
PRMT5-MEP50 biochemical assay is a direct measurement of the methylation activity of the enzyme complex on a short peptide substrate derived from the N-terminus of H4 histone. Methylation experiment was performed with recombinant PRMT5-MEP50 protein complex. The assessment of inhibitory effect of small molecules was measured by the effectiveness of the compounds to inhibit this reaction (EC50).
In this assay, the potency (EC50) of each compound was determined from a twenty-point (1:2 serial dilution; top compound concentration of 100000 nM) titration curve using the following outlined procedure. To each well of a white ProxiPlus 384 well-plate, 100 nL of compound (1% DMSO in final assay volume of 10 μL) was dispensed, followed by the addition of 8 μL of 1× assay buffer (50 mM Bicine pH 8.0, 1 mM DTT, 0.004% Tween20, 0.01% BSA) containing 1.25 nM of Full-length (FL)-PRMT5-MEP50 enzyme complex (recombinant proteins from baculovirus-transfected Sf21 cells: FL-PRMT5; MW=[…] and FL-MEP50; MW=38614) and 1 μL of 150 μM S-(5′-Adenosyl)-L-Methionine Chloride (SAM). A plate were sealed and placed in a 37° C. humidified chamber for a 60 minutes pre-incubation with compound. Subsequently, each reaction was initiated by the addition of 1 μL 1× assay buffer containing 750 nM biotinylated H4R3(Me1) peptide. The final reaction in each well of 10 μL consists of 1.0 nM PRMT5-MEP50, 75 nM biotinylated-peptide, and 15 μM SAM. Methylation reactions were allowed to proceed for 150 minutes in a sealed plate at 37° C. Reactions were immediately quenched by the addition of 1 μL of 5% formic acid. A plate was then frozen and shipped to SAMDI™ Tech Inc. to determine the percent conversion from H4R3(Me1) to H4R3(Me2). Dose-response curves were generated by plotting percent effect (% product conversion; Y-axis) vs. Log 10 compound concentrations (X-axis). EC50 values were determined by non-linear regression according to models for either sigmoidal (4 parameters) or biphasic (7 parameters) dose-response curves.

[2] = test system: symmetric dimethylation of arginine (SDMA) of PRMT5 substrates in MCF-7 cells; test: PRMT5 Cell Target Engagement (TE) Assay; type: cell-based; conditions: 3 days treatment, SDMA high content imaging
Source text: PRMT5 Cell Target Engagement (TE) Assay
The PRMT5 TE assay is a biomarker assay for identifying compounds that inhibit symmetric dimethylation of arginine (SDMA) of PRMT5 substrates. The following substrates have been reported for PRMT5: histone H2A and H4 R3, Histone H3 R2, Histone H3 R8, spliceosome Sm proteins, ribosomal protein RPS10, p53, FEN1, nucleoplasmin, nucleolin, EGFR and EBNA. The assay focuses on detecting symmetrically dimethylated nuclear proteins using high content imaging technology. Detection of the expression of symmetrically dimethylated nuclear proteins is through a mixture of primary rabbit monoclonal antibodies to SDMA (CST 13222), which in turn recognized by an Alexafluor 488 dye-conjugated anti-rabbit IgG secondary antibody. The IN Cell Analyzer 2200 or Opera-Phenix measures nuclear Alexafluor 488 fluorescent dye intensity that is directly related to the level of expression of symmetrically dimethylated nuclear proteins at the single cell level. Nuclear AF488 dye intensities are compared to the mean value for DMSO treated cells (MIN) to report percent of inhibition for each compound-treated well.
In this assay, the cell potency (EC50) of each compound was determined from a ten point (1:3 serial dilution; top compound concentration of 10000 nM) titration curve using the following outlined procedure. Each well of a BD falcon collagen coated black/clear bottom 384-well plate was seeded with 4000 MCF-7 cells in 30 μl media and allowed to attach for 5 h. Media is ATCC-formulated Eagle's Minimum Essential Medium, Catalog No. 30-2003. To make the complete growth medium, the following components were added to the base medium: 0.01 mg/mL human recombinant insulin; fetal bovine serum to a final concentration of 10%. Additional 30 μl of media containing 2× compounds were added to each well. Cells were treated for 3 days in 37° C. CO2 incubator. On day 3, cells were fixed with Cytofix, permeabilized with 0.4% Triton-X-100/Cytofix, and washed with D-PBS without Ca/Mg. Cells were blocked with Licor Odessey blocking reagent for 1 h at room temperature, followed by incubation with anti-SDMA (1:1000) antibody at 4° C. overnight. 1° antibody was removed, followed by three washings with DPBS without Ca/Mg and 0.05% Tween20. Hoechst (5 μg/mL), Cell Mask deep stain (1:2000) and Alexa488-conjugated goat anti-rabbit IgG (2 μg/mL) was added for 1 h at room temperature. A final washing step (three washes) was performed before sealing plate for imaging on In Cell Analyzer 2200 or Opera-Phenix. Images from analyzer were uploaded to Columbus (at WP or BOS) for image analysis. IC50 values were determined by 4 parameters robust fit of percent fluorescence units vs. (Log10) compound concentrations.

[3] = second value of 7 parameter biphasic fit, read-out: Enzyme Methylation Assay Version A (EC50 2)
[4] = single EC50 = 4 parameter single site sigmoidal fit, EC50 1 = first value of 7 parameter biphasic fit, read-out: Enzyme Methylation Assay Version A (EC50 or EC50 1)

| EC50 [1, 3] [nM] | EC50 [1, 4] [nM] | EC50 [2] [nM] | EC50 ([2]; Homo sapiens, MCF7, 72 h) [nM] | SMILES |
| --- | --- | --- | --- | --- |
| 147 | 0.427 | 7.8 | – | O=C(c1cn2cc(Br)nc(OC3CCOC3)c2n1)N1CC[C@]2(Cc3ccccc3CN2)[C@H](O)C1 (single isomer, unassigned) [Example 99, (6-bromo-8-(((S or R)(tetrahydrofuran-3-yl)oxy)imidazo[1,2-a]pyrazin-2-yl)((3R,3′R)-3′-hydroxy-1,4-dihydro-2H-spiro[isoquinoline-3,4′-piperidin]-1′-yl)methanone] |
| 60.6 | 0.266 | – | 4.13 | O=C(c1cn2cc(Br)nc(OCC3CCCO3)c2n1)N1CC[C@]2(Cc3ccccc3CN2)[C@H](O)C1 (single isomer, unassigned) [Example 100, (6-bromo-8-(((S or R)-tetrahydrofuran-2-yl)methoxy)imidazo[1,2-a]pyrazin-2-yl)((3R,3′R)-3′-hydroxy-1,4-dihydro-2H-spiro[isoquinoline-3,4′-piperidin]-1′-yl)methanone] |
| 56.2 | 0.294 | 7.02 | – | O=C(c1cn2cc(Br)nc(OCC3CCCO3)c2n1)N1CC[C@]2(Cc3ccccc3CN2)[C@H](O)C1 (single isomer, unassigned) [Example 101, (6-bromo-8-(((S or R)-tetrahydrofuran-2-yl)methoxy)imidazo[1,2-a]pyrazin-2-yl)((3R,3′R)-3′-hydroxy-1,4-dihydro-2H-spiro[isoquinoline-3,4′-piperidin]-1′-yl)methanone] |
| 34700 | 52.1 | 800 | – | CC(n1ccc(C(=O)N2CC[C@]3(Cc4ccccc4CN3)[C@H](O)C2)cc1=O)C(F)(F)F (single isomer, unassigned) [Example 102, 4-((3R,3′R)-3′-hydroxy-2,4-dihydro-1H-spiro[isoquinoline-3,4′-piperidin]-1′-ylcarbonyl)-1-((S or R)-1,1,1-trifluoropropan-2-yl)pyridin-2(1H)-one] |
| 80000 | 171 | 2860 | – | CC(n1ccc(C(=O)N2CC[C@]3(Cc4ccccc4CN3)[C@H](O)C2)cc1=O)C(F)(F)F (single isomer, unassigned) [Example 103, 4-((3R,3′R)-3′-hydroxy-2,4-dihydro-1H-spiro[isoquinoline-3,4′-piperidin]-1′-ylcarbonyl)-1-((R or S)1,1,1-trifluoropropan-2-yl)pyridin-2(1H)-one] |
| 1410 | 1.44 | 83.1 | – | CCC1Oc2ccc(C(=O)N3CC[C@]4(Cc5ccccc5CN4)[C@H](O)C3)cc2NC1=O (single isomer, unassigned) [Example 104, (2R or 2S)-2-ethyl-6-((3R,3′R)-3′-hydroxy-1,4-dihydro-2H-spiro[isoquinoline-3,4′-piperidine]-1′-carbonyl)-2H-benzo[b][1,4]oxazin-3(4H)-one] |
| 146 | 0.519 | 4.39 | – | CCC1Oc2ccc(C(=O)N3CC[C@]4(Cc5ccccc5CN4)[C@H](O)C3)cc2NC1=O (single isomer, unassigned) [Example 105, (2S or 2R)-2-ethyl-6-((3R,3′R)-3′-hydroxy-1,4-dihydro-2H-spiro[isoquinoline-3,4′-piperidine]-1′-carbonyl)-2H-benzo[b][1,4]oxazin-3(4H)-one] |
| 1010 | 0.43 | 36.8 | – | O=C1Nc2cc(C(=O)N3CC[C@]4(Cc5ccccc5CN4)[C@H](O)C3)ccc2OC1C1CC1 (single isomer, unassigned) [Example 106, (2R or 2S)-2-cyclopropyl-6-((3R,3′R)-3′-hydroxy-1,4-dihydro-2H-spiro[isoquinoline-3,4′-piperidine]-1′-carbonyl)-2H-benzo[b][1,4]oxazin-3(4H)-one] |
| – | 0.272 | 6.67 | – | O=C1Nc2cc(C(=O)N3CC[C@]4(Cc5ccccc5CN4)[C@H](O)C3)ccc2OC1C1CC1 (single isomer, unassigned) [Example 107, (2S or 2R)-2-cyclopropyl-6-((3R,3′R)-3′-hydroxy-1,4-dihydro-2H-spiro[isoquinoline-3,4′-piperidine]-1′-carbonyl)-2H-benzo[b][1,4]oxazin-3(4H)-one] |
| 207 | 4.25 | – | 12.9 | CC(O)c1cc(C(F)(F)F)cn2cc(C(=O)N3CC[C@]4(Cc5ccccc5CN4)[C@H](O)C3)nc12 (single isomer, unassigned) [Example 108] |
| 126 | 0.276 | 8.28 | – | CC(O)c1cc(C(F)(F)F)cn2cc(C(=O)N3CC[C@]4(Cc5ccccc5CN4)[C@H](O)C3)nc12 (single isomer, unassigned) [Example 109] |
| 144 | 0.304 | 5.56 | – | COC(C)c1cc(C)c2nc(C(=O)N3CC[C@]4(Cc5ccccc5CN4)[C@H](O)C3)cn2c1 (single isomer, unassigned) [Example 122] |
| 182 | 0.378 | 11.8 | – | COC(C)c1cc(C)c2nc(C(=O)N3CC[C@]4(Cc5ccccc5CN4)[C@H](O)C3)cn2c1 (single isomer, unassigned) [Example 123] |
| – | 32.9 | – | 146 | COC(C)c1cnc2nc(C(=O)N3CC[C@]4(Cc5ccccc5CN4)[C@H](O)C3)cn2c1 (single isomer, unassigned) [Example 136] |
| 251 | 1.92 | 124 | – | COC(C)c1cnc2nc(C(=O)N3CC[C@]4(Cc5ccccc5CN4)[C@H](O)C3)cn2c1 (single isomer, unassigned) [Example 137] |
| 767 | 8.19 | 212 | – | CN1CC(C2CC2)Cn2cc(C(=O)N3CC[C@]4(Cc5ccccc5CN4)[C@H](O)C3)nc21 (single isomer, unassigned) [Example 139] |
| 1860 | 29.5 | 620 | – | CN1CC(C2CC2)Cn2cc(C(=O)N3CC[C@]4(Cc5ccccc5CN4)[C@H](O)C3)nc21 (single isomer, unassigned) [Example 142] |
| – | 184 | – | 318 | COCCN1CC(C2CC2)Cn2cc(C(=O)N3CC[C@]4(Cc5ccccc5CN4)[C@H](O)C3)nc21 (single isomer, unassigned) [Example 143] |
| – | 65.9 | 173 | – | COCCN1CC(C2CC2)Cn2cc(C(=O)N3CC[C@]4(Cc5ccccc5CN4)[C@H](O)C3)nc21 (single isomer, unassigned) [Example 144] |
